Laboratory results: paper PMC5931594, “Substrate-bound outward-open structure of a Na^+-coupled sialic acid symporter reveals a new Na^+ site” (Nature Communications, 2018)
Like-named read-outs stand apart in the source and are kept apart here.

Target: T1, SiaT (Proteus mirabilis, UniProt B4EZY7)
T1 construct: full-length, C-terminal HRV 3C site-GFP-8xHis tag cleaved by 3C protease; reconstituted in proteoliposomes for uptake
Test: microscale thermophoresis, label-free
Format: binding
Details: PBS, 0.0174% DDM

T1 sequence (B4EZY7 whole entry): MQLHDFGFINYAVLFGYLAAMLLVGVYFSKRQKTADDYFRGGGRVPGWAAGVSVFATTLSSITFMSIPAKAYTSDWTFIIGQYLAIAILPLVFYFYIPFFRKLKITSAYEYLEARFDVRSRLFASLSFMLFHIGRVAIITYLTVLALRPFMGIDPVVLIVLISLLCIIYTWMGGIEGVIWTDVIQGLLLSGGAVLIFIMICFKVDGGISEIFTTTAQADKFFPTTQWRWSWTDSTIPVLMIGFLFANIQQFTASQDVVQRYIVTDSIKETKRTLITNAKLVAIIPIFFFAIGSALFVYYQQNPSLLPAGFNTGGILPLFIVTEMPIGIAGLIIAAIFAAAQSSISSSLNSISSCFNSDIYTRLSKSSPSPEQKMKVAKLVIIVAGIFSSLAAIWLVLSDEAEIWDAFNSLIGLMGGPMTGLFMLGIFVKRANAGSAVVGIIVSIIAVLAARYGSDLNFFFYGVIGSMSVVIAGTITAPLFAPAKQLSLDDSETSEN

SMILES: O=C(O)C1(O)C[C@H](O)[C@@H](O)[C@H]([C@H](O)[C@H](O)CO)O1 (some centres unmarked) [ketodeoxynonulosonic acid]
- Kd: > 10000 µM

SMILES: O=C(CO)N[C@H]1[C@H]([C@H](O)[C@H](O)CO)OC(O)(C(=O)O)C[C@@H]1O (some centres unmarked) [N-glycolylneuraminic acid]
- Kd (read-out: Kd^Neu5Gc): 85 ± 2 µM
